{
  "source": "paper PMC5847048",
  "about": "(Psychopharmacology, 2017)",
  "key": {"normal adult mice": {"system": "normal adult mice", "parameters": "method as in Bretin et al. [2017]", "conditions": "acute administration, ref Bretin et al. [2017]; cited from earlier work"}, "mice": {"system": "mice", "experiment": "Primary observation (Irwin) test", "conditions": "S 47445 alone, 3 to 100 mg/kg p.o.; mice", "source_text": "Male Rj: C57BL/6J mice (Elevage Janvier, 53940 Le Genest-Saint-Isle, France), 23–27 g body weight range, were stabilized for at least 5 days after delivery in macrolon cages in groups of 10 (housing period) (25 × 19 × 13 cm) and then of 4 (starting the day before the test and during the test) in macrolon cages (25 × 19 × 13 or 32 × 13 × 14 cm) on wood litter with free access to food and water.\nBetween one and three treated groups were compared with the same control at any one time. […] In order to keep the same conditions, all the mice receiving a single treatment also received another administration with vehicle.\nBehavioral modifications, physiological and neurotoxicity symptoms, and rectal temperature were recorded according to a standardized observation grid derived from that of Irwin. The grid contains the following items: death*, convulsions*, tremor*, Straub tail*, altered activity, excitation, jumping*, abnormal gait* (rolling, tip-toe), motor incoordination*, altered muscle tone, loss of grasping, akinesia, catalepsy, loss of traction, writhing*, piloerection*, stereotypies* (sniffing, chewing, head movements), head-twitches*, scratching*, altered respiration*, aggression*, altered fear, altered reactivity to touch, ptosis, exophthalmia, loss of righting reflex, loss of corneal reflex, analgesia, defecation/diarrhea, salivation, lacrimation, and rectal temperature (hypothermia/hyperthermia)."}, "aged rats": {"system": "aged rats", "parameters": "method as in Calabrese et al. [2017]", "conditions": "dorsal hippocampus and prefrontal cortex of aged rats; ref Calabrese et al. [2017]; cited from earlier work"}, "[1]": {"method": "The sampling times were 30 min, 1, 2, 4, and 6 h.\nPlasma was extracted from the blood sample by centrifugation (+ 4 °C, 1500g, 10 min) and stored at − 80 °C. Then, plasma samples were sent in dry ice to Celerion (Switzerland) for the pharmacokinetic analysis."}, "[2]": {"system": "middle-aged mice (14–15 months old)", "experiment": "Contextual serial discrimination (CSD) task", "format": "in vivo, mouse", "conditions": "for Strength of contextual memory (SCM) score, first discrimination D1: Experiment 1 study A, middle-aged mice, vehicle − 21.66%; for SCM score (LSMeans ± SE LSMeans): Experiment 2, 9 days, D1", "method": "Treatments were administered per os daily for nine consecutive days for studies involving the CSD and SA tasks. The 8th and the 9th oral administrations were given 60 min before acquisition and test phases in the CSD task, or before the training and the test sessions in the SA task.\nThe studies were carried out on mice according to the procedure described in full by Celerier et al. ([2004]) and Tronche et al. ([2010]) (Fig.1). Briefly, the mouse learns two consecutive spatial discriminations (D1 and D2) in a four hole-board apparatus (45 × 45 × 30 cm) enclosed with gray Plexiglas walls. The floor of the hole-board was interchangeable (white and rough versus black and smooth). On the floor, four holes opening on a food cup (3-cm diameter × 2.5-cm depth) were located 6 cm away from the sidewalls. Photocells located into the holes allowed an automatic recording of the number of head-dips in each hole.\nFig. 1 a Contextual serial discrimination: at the acquisition phase, mice performed two consecutive spatial discrimination sessions varying by the color and texture of the floor, i.e., D1, discrimination 1, and D2, discrimination 2. For each discrimination session, only one out of the four holes of the apparatus was baited (hashed circles). […] One hour prior to acquisition and test phases, mice received a per os administration of the compounds or vehicle solution in a chamber placed in a room (room C) different from the one in which the behavioral experiments were conducted (room A). Subsequently, mice were submitted to the test phase in which they were repositioned on the floor of the first discrimination without any food pellet in the apparatus. b Two types of responses were calculated: (i) correct responses corresponding to head-dips into the hole baited at the acquisition of the first discrimination (D1), on the same floor context; (ii) interference responses corresponding to head-dips into the hole baited at the other (second) discrimination (D2). Both parameters allow calculation of the SCM score\nMice were partially food-deprived for 1 week prior to experimentation and were maintained on a 12 ± 2% loss of their body weight throughout behavioral testing to increase motivation for food reward. During the food deprivation phase, mice were handled daily to familiarize them with the experimenter.\nDuring the acquisition session, mice were first placed at the center of the board in a plastic tube for 15 s and then learned two successive spatial discriminations (D1 and D2) for 6 min each and were each separated by a 2-min interval. Between two sessions, each mouse was placed in its home cage in an animal housing room. For D1, ten 20-mg pellets were available only in one of the four holes in the board. For D2, ten 20-mg pellets were located in the opposite symmetrical hole. The environmental spatial cues remained at the same place for D1 and D2. Within each group, the floors used for the first and second discrimination (D1 and D2) were counterbalanced at the acquisition phase from one mouse to the other. A minimal amount of eight pellets should be eaten per mouse at either D1 or D2 during the acquisition phase.\nDuring memory testing, D1 and D2 discriminations were performed in independent groups of mice, being replaced either on the floor of D1 or of D2. The food-deprived mice were replaced either on the floor of D1 or on the floor of D2. In each case, mice were allowed to explore the apparatus freely and performance was assessed by measuring the exploration for each hole for 6 min without any pellets in the apparatus. During the procedure, photocells allowed measurement of the number of head dips in each hole. Different parameters were further calculated: % of correct responses (head-dips into the hole previously baited on the same floor context), % of interfering responses (head-dips into the hole previously baited on the other floor context), and % of errors (head-dips into the two holes never previously baited)."}, "middle-aged mice": {"system": "middle-aged mice", "parameters": "method as in Giralt et al. [2017]", "conditions": "ref Giralt et al. [2017]; cited from earlier work"}, "[3]": {"system": "aged mice (22–24 months old)", "experiment": "Radial maze working memory task", "format": "in vivo, mouse", "procedure": "In the radial arm maze task, treatments were administered subcutaneously (s.c.) once a day 60 min prior to testing from the 2 days of habituation to the 12 days of memory testing.\nThe radial maze (Imetronic system, Pessac, France) was fully automated and enabled by video-tracking automatic testing and recording. Briefly, each mouse was separately assigned to six adjacent arms which were grouped into three pairs (A, B, C). These three pairs were presented repeatedly among the successive trials of each testing session. The location of the food reward varied in each pair according to an alternation rule among successive trials. Namely, among the two arms opened in a specific trial, the food was inserted in the arm which was not visited in the previous trial within the same pair. The mouse must therefore remember which of the two arms was visited in a specific trial until next presentation of the same pair, and so on in order to alternate its choice among successive presentations of any pair. At the beginning of each daily session, the mouse was placed in the central platform of the radial maze with all arms closed. One pair of arms only was opened at the beginning of each trial, and the mouse was required to visit one arm. The door of the non-chosen arm was closed as soon as the mouse reached the end of the chosen arm. The mouse was allowed to run back to the central platform of his own accord, and then, the door of the chosen arm was closed. The mouse remained in the central platform until the following trial (intertrial interval 10 s). Since three pairs were concurrently used, three specific arm visits must be kept in memory by the mouse until their utilization by using short-term working memory. After 2 days of free exploration in the maze (habituation), mice were submitted to 12 consecutive testing sessions: one session of 23 trials (3 “acquisition-only trials,” one by pair, and 20 “acquisition and test trials”) per day, i.e., a total of 276 trials (240 test trials).\nEach session consisted of alternate presentations of pairs A, B, and C. The first three trials with each pair were acquisition trials (both arms rewarded). Each of the following trials was at the same time an acquisition trial (for the following trial with the same pair) and a test trial (for the arm visit made during the preceding trial with the same pair); the rewarded arm was the one that has not been visited on the preceding trial with the same pair. Memory demand varied across successive trials according to the retention interval RI (i.e., the number of intervening trials with other pairs between two successive presentations of the same pair). The retention interval for one specific arm visit (e.g., within pair A) depends on the number of concurring trials (i.e., with pairs B and C) occurring till next trial with the same pair (A). Indeed, such a variable amount of interposed trials proportionally increases the delay between acquisition and test and may also generate retroactive interference. There are five levels of retention interval: from 0, corresponding to “no interposed pair,” to 4, corresponding to a sequence of four interposed trials between n-1 and n trials.\nDuring habituation, the time needed for visiting all six arms per session day was measured. During memory testing, memory performance was evaluated according to the percentage of correct alternation responses between successive trials with the same pair in three different manners."}, "[4]": {"conditions": "S 47445 0.3 mg/kg p.o. alone, repeated (day 10), blood, middle-aged mice"}},
  "note": "Like-named read-outs stand apart in the source and are kept apart here.",
  "data": [
    {"compound": "O=C1c2cc3nnn(CCc4cccc(F)c4)c(=O)c3cc2OCN1C1CC1", "note": "[S 47445]", "values": [
      {"measurement": "Working-like memory in spontaneous alternation task", "setting": "normal adult mice", "result": "dose-related improvement"},
      {"measurement": "Observable effects in the Irwin test", "setting": "mice", "result": "devoid of any observable effect"},
      {"measurement": "Neurotrophic effects", "setting": "aged rats", "result": "displayed neurotrophic effects"},
      {"measurement": "Mean AUClast [% CV]", "setting": "[1]; [4]", "result": "32.1 [7.83] ng h/mL"},
      {"measurement": "Mean Cmax [% CV]", "setting": "[1]; [4]", "result": "10.2 [13.7] ng/mL"},
      {"measurement": "Median Tmax [range]", "setting": "[1]; [4]", "result": "1.5 [1–4] h"},
      {"measurement": "T1/2z [% CV]", "setting": "[1]; [4]", "result": "2.09 [32.0] h"},
      {"measurement": "Blood concentration at the active doses used in the pharmacological experiments", "setting": "[1]; S 47445, limit of quantification 1 ng/ml", "result": "below the limit of quantification"},
      {"measurement": "tmax", "setting": "[1]; S 47445, not changed following combination", "result": 1.5, "unit": "h"},
      {"measurement": "Apparent elimination half-life", "setting": "[1]; mouse, in vivo", "result": "2.1 to 3.6", "unit": "h"},
      {"measurement": "Mean AUClast [% CV]", "setting": "[1]; mouse, in vivo", "result": "32.6 [23.0] ng h/mL"},
      {"measurement": "Mean Cmax [% CV]", "setting": "[1]; mouse, in vivo", "result": "8.46 [20.8] ng/mL"},
      {"measurement": "Median Tmax [range]", "setting": "[1]; mouse, in vivo", "result": "1.5 [1–2] h"},
      {"measurement": "T1/2z [% CV]", "setting": "[1]; mouse, in vivo", "result": "3.58 [66.9] h"},
      {"measurement": "Time after dosing at which Cmax was reached", "setting": "[1]; mouse, in vivo", "result": "1 to 4", "unit": "h"},
      {"measurement": "Total number of explorations and % exploration of the baited hole, acquisition phase", "setting": "[2]; Experiment 1 (study A and B), compounds alone, p> 0.10 in all analyses", "result": "No significant between-groups difference"},
      {"measurement": "Memory performance in the second discrimination (D2)", "setting": "[2]; Experiment 1, S 47445 at all doses, donepezil at the active doses, versus middle-aged vehicle, data not shown", "result": "did not alter memory performance"},
      {"measurement": "Total number of head-dips, test phase", "setting": "[2]; Experiment 1, versus vehicles (p > 0.10 in all comparisons), data not shown", "result": "no significant effect"},
      {"measurement": "Strength of contextual memory (SCM) score, first discrimination D1", "setting": "[2]; S 47445 0.1 mg/kg p.o. daily 9 days", "result": 6.56, "unit": "%"},
      {"measurement": "Strength of contextual memory (SCM) score, first discrimination D1", "setting": "[2]; S 47445 0.3 mg/kg p.o. daily 9 days", "result": 10.57, "unit": "%"},
      {"measurement": "SCM score (LSMeans ± SE LSMeans)", "setting": "[2]; S 47445 0.1 mg/kg p.o. alone", "result": "5.1515 ± 7.7919", "unit": "%"},
      {"measurement": "SCM score (LSMeans ± SE LSMeans)", "setting": "[2]; S 47445 0.3 mg/kg p.o. alone", "result": "11.7033 ± 7.7919", "unit": "%"},
      {"measurement": "Post hoc analysis of S 47445 effect on SCM score for all donepezil levels (Dunnett, versus vehicle group)", "setting": "[2]; S 47445 0.03 mg/kg, all levels of donepezil pooled", "result": "+ (+p ≤ 0.050)"},
      {"measurement": "SCM score of the second discrimination (D2), dose effect at pooled levels of the other drug", "setting": "[2]; Supplemental data 2, S 47445 0.03–0.3 mg/kg p.o. (p=0.951), Donepezil 0.03 and 0.1 mg/kg (p=0.074)", "result": "no significant effect"},
      {"measurement": "In vivo CA3-CA1 long-term potentiation and structural synaptic changes", "setting": "middle-aged mice", "result": "rescues in vivo CA3-CA1 long-term potentiation and structural synaptic changes"},
      {"measurement": "Overall memory performance (mean percentage of correct responses over 12 days)", "setting": "[3]; S 47445 0.3 mg/kg s.c. once a day, aged mice, versus aged vehicle (p ≤ 0.05)", "result": "better memory performance as compared to aged vehicle-treated mice"},
      {"measurement": "Performance as a function of retention interval (RI 0–4) versus chance level", "setting": "[3]; S 47445 0.3 mg/kg s.c., aged mice (at least p ≤ 0.01)", "result": "remained significantly above chance level regardless the RI level"},
      {"measurement": "Performance as a function of proactive interference", "setting": "[3]; S 47445 0.3 mg/kg s.c., aged mice, data not shown", "result": "ameliorated performance whatever the level of proactive interference"},
      {"measurement": "Performance as a function of retention interval (RI 0–4) versus chance level", "setting": "[3]; all other groups (S 47445 0.1 and 1 mg/kg s.c.), aged mice", "result": "dropped to chance level above R1 = 1"}
    ]}
  ]
}
